The source of these data is PMC6198970, “Safety, efficacy, and dose response of the maturation inhibitor GSK3532795 (formerly known as BMS-955176) plus tenofovir/emtricitabine once daily in treatment-naive HIV-1-infected adults: Week 24 primary analysis from a randomized Phase IIb trial” (PLoS ONE, 2018).

Holding throughout (assay type): in vivo, HIV-1-infected adults
In data set [1] the test system is HIV-1. Nature of the data set: Phase IIb study 205891: plasma HIV-1 RNA response at Week 24 (FDA snapshot, observed). The conditions noted are these: Week 24, mITT; GSK3532795: range across 60, 120, 180 mg arms; EFV 600 mg; each + TDF/FTC.
Protocol: 205891 was a Phase IIb, randomized, active-controlled, double-blind trial performed at 58 sites in 12 countries across South America, North America, South Africa, and Europe. Participants were randomized 1:1:1:1 to one of four treatment arms; GSK3532795 at doses of 60 mg, 120 mg or 180 mg once daily (QD), and one reference arm with EFV at a dose of 600 mg QD, each given in combination with TDF/FTC 300/200 mg QD.
Participants attended study visits at screening, on Day 1, and once every 4 weeks from Week 4 to Week 24 (telephonic visits were conducted at Week 20). Participants were expected to continue treatment, then, through Week 96, with visit intervals every 8–12 weeks. A post-dose safety follow-up visit was also conducted 12 weeks after treatment discontinuation. Plasma HIV-1 RNA levels were quantified by the Abbott RealTime HIV-1 assay.
The FDA-defined snapshot algorithm was used for primary endpoint efficacy assessment, using the last plasma HIV-1 RNA value in the pre-defined Week 24 visit window (± 6 weeks) to determine response. The modified intent-to-treat (mITT) population consisted of participants who received at least one dose of GSK3532795 or EFV. […]
Data set [2] has as its system HIV-1. Nature of the data set: Protocol-defined virologic failure and drug resistance testing (GenoSure MG, PhenoSense). The conditions noted are these: EFV arm; through Week 24. The text has this: PDVF was defined as either: (1) confirmed HIV-1 RNA ≥40 copies/mL at any time after prior confirmed suppression to <40 copies/mL; or (2) a confirmed >1 log10 copies/mL above the nadir level. Genotypic information required for screening was generated using the GenoSure® MG assay; genotypic information and phenotypic observations during the treatment period were generated using the PhenoSense® combination resistance test.

Data set [3] concerns CD4+ T-cell count. Nature of the data set: Change from baseline in CD4+ T-cell count. The conditions noted are these: EFV arm; Week 24. The source says:
The primary endpoint was determination of the proportion of participants with plasma HIV-1 RNA <40 copies/mL at Week 24 after treatment with GSK3532795 or efavirenz (EFV). Secondary endpoints included mean changes from baseline in CD4+ T-cell count and mean changes in the percentage of CD4+ T-cell count over time. Secondary safety endpoints included frequency of adverse events (AEs), serious AEs (SAEs), and AEs leading to discontinuation through Week 24. Further secondary endpoints included emergence of drug resistance. Exploratory endpoints included assessment of the impact of Gag polymorphisms on the efficacy of GSK3532795. […] In addition, though Gag A364 is essentially invariant across genotypes, it was included in the primary endpoint analysis since emergent resistance to GSK3532795 (both in vitro and in Phase IIa studies) mapped, in part, to the A364V change. Thus, our analysis at the Week 24 primary endpoint was limited to these four positions. Pharmacokinetic (PK) analyses were performed to evaluate treatment exposure and assess the dose proportionality of GSK3532795 when co-administered with tenofovir disoproxil fumarate (TDF)/emtricitabine (FTC).

Data set [4] is described as follows: Clinical laboratory evaluations. On the procedure: (§1) Physical examinations, measurement of vital signs, and clinical laboratory evaluations were performed at Weeks 4, 8, 12, 16 and 24, and participants were closely monitored for AEs and SAEs throughout. AEs were classified according to MedDRA version 19.0. The severity and relationship to study drug was assessed by the local investigator.

Data set [5] is described as follows: Adverse events through Week 24. On the procedure:
as §1

Where [6] appears, read: GSK3532795: range across 60, 120, 180 mg arms, EFV 600 mg.
The mark [7] stands for this setting: GSK3532795 arms pooled, EFV 600 mg, abstract.

As to `O=C1Nc2ccc(Cl)cc2[C@@](C#CC2CC2)(C(F)(F)F)O1` [EFV, efavirenz, reference compound], the “Participants achieving HIV-1 RNA <40 copies/mL” value in data set [1] is recorded as 77%. Also, in data set [2], the “Rate of protocol-defined virologic failure (PDVF)” value is given as 2% (1/53). Further, in data set [3], the “Mean change from baseline in CD4+ T-cell count (SD)” value is listed as 134.7 (SD 151.70) cells/μL. In data set [4] (EFV arm, baseline to Week 24), the “Mean increase in total cholesterol” value came to 17.6 mg/dL and the “Mean increase in triglyceride levels” value stood at 41.1 mg/dL. Further, in data set [4] (one participant, discontinued), the “Hepatic event attributed to EFV” value is given as “several Grade 4 liver chemistry elevations”. The “Mean time to onset of first diarrhea event” value in data set [5] (EFV arm) is listed as 73.0 days. The “Mean duration of first diarrhea event” value in data set [5] (EFV arm (shortest)) stood at 35.8 days. For the same compound, the “Incidence of dizziness relative to GSK3532795” value in data set [5] (EFV arm vs GSK3532795 arms) is recorded as roughly 10 fold. Also, the “SAE considered related to study drug” value in data set [5] (GSK3532795 120 mg (no action taken), EFV (led to discontinuation)) is given as “increased hepatic enzyme”. Moreover, in data set [5] (setting [6]), the “Grade 1–4-related abdominal pain” value was 0% and the “Grade 1–4-related diarrhea” value worked out at 4%. Further, in data set [5] (setting [7]), the “Adverse events leading to discontinuation” value is on record as 17% and the Serious adverse events amounted to 9%. In data set [5] (GSK3532795 arms pooled, EFV 600 mg, through Week 24), the “Frequency of Grade 1–4-related AEs” value worked out at 60%.
